# Key:
# Rat ASCT2 = target: T1, Rat ASCT2 (Rattus norvegicus, UniProt D3ZJ25); assay type: cell-based
# T1 sequence (D3ZJ25 1-555): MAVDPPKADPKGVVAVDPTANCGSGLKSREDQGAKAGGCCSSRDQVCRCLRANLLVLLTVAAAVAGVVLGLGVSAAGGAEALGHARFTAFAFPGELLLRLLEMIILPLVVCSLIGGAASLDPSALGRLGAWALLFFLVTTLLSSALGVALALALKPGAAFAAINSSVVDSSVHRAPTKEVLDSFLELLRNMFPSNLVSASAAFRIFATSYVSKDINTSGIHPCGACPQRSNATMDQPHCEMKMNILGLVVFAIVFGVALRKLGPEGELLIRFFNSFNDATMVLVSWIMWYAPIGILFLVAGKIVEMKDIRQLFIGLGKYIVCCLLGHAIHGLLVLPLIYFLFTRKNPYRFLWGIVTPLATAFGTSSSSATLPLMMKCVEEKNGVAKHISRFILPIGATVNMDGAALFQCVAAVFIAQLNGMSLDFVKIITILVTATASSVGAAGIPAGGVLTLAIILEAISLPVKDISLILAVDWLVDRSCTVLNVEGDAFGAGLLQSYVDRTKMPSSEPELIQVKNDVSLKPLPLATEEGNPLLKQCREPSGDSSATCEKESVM
# ASCT2 = details: commercially available ASCT2 inhibitor; cited from earlier work
structure (smiles),measurement,setting,value
O=C(O)[C@@H]1CCCN1 [proline],activity in ASCT2,Rat ASCT2; concentration up to 1 mM,does not induce any activity
O=C(O)[C@@H]1C[C@@H](Cc2ccc(-c3ccccc3)cc2)CN1 [(R)-γ-(4-biphenylmethyl)-L-proline],higher affinity compared to any other ASCT2 inhibitor tested so far,"Rat ASCT2; compared to authors' earlier ASCT2 inhibitors [11],[15]",about 8 fold
N[C@@H](CCC(=O)Nc1ccc([N+](=O)[O-])cc1)C(=O)O [L-γ-glutamyl-nitroanilide],affinity for ASCT2,ASCT2,mM affinity
O=C(O)[C@@H]1C[C@@H](Cc2ccccc2F)CN1 [(R)-γ-(2-fluoro-benzyl)-L-proline],Ki,Rat ASCT2,83 ± 20 µM

# — PMC5363072 (Bioorganic & medicinal chemistry letters, 2016)
